Assay results taken from EP4692107A1, “PEPTIDE HAVING SKIN CONDITION IMPROVEMENT ACTIVITY AND USE THEREOF” (Caregen Co., Ltd., priority 2023, dated 2026).

Key:
Type in all cases: cell-based
human dermal fibroblasts = test: Fibroblast proliferation effect (SRB staining, absorbance at 560 nm); settings: peptide at 10 µM, 50 µM or 100 µM, 72 hours, 37 °C, concentration-dependent, maximum increase (FIG. 1)
Protocol: To confirm the effect of a peptide consisting of the amino acid sequence of SEQ ID NO: 1 on promoting the proliferation of Fibroblasts. Specifically, human dermal fibroblasts were seeded in a 96-well plate at a density of 5x10^3 cells/well and cultured for 24 hours. After replacing with serum-free mesenchymal stem cell medium, the cells were cultured for 24 hours. The above peptide was treated at concentrations of 10 µM, 50 µM, or 100 µM, respectively, and incubated at 37 °C for 72 hours. As a positive control group, 50 nM of human recombinant FGF protein was treated. After completion of culturing, the culture supernatant was removed and the cells were fixed using ethanol. After washing with PBS, staining was performed by treating with SRB solution. After washing with 1 % acetic acid, cells were observed under a microscope and destained by treating with 20 mM tris solution. Cell viability was measured by measuring absorbance at a wavelength of 560 nm using a spectrophotometer (SpectraMax iD3, Molecular Devices (USA, CA)).
The results are illustrated in FIG. 1. From the results of FIG. 1, it may be confirmed that proliferation was induced in a concentration-dependent manner in the peptide treatment group, increasing by up to 1.62 times.

fibronectin = test: Extracellular matrix expression by immunofluorescence (confocal, Image J): fibronectin; settings: human dermal fibroblasts; peptide at 10 µM, 50 µM or 100 µM, 48 hours; green fluorescence intensity; maximum increase (FIG. 2)
Protocol: (§1) To confirm the effect of a peptide consisting of the amino acid sequence of SEQ ID NO: 1 on increasing the expression of the dermal extracellular matrix. Specifically, human dermal fibroblasts were seeded in a 6-well plate at a density of 3x10^5 cells/well and cultured for 24 hours. After replacing with serum-free mesenchymal stem cell medium, the cells were cultured for 24 hours. A peptide was treated at concentrations of 10 µM, 50 µM, or 100 µM, respectively, and incubated at 37 °C for 48 hours. Human recombinant FGF protein was treated at 100 nM. After the culture was completed, the culture supernatant was removed and fixed with 4 % paraformaldehyde for 30 minutes. After washing with PBS, the cells were reacted with 0.5 % Triton X-100 for 15 minutes. After reacting with 3 % BSA for 1 hour, primary antibodies against collagen type 1, fibronectin, and elastin were diluted 1:100 and reacted overnight at 4 °C. Secondary antibody-FITC was diluted 1:500 and reacted at room temperature for 2 hours, followed by DAPI staining and mounting. The expression images of each marker were observed using a confocal microscope (Leica, Germany). Green fluorescence intensity was measured using Image J.
(§2) The results are illustrated in FIG. 2. […]

elastin = test: Extracellular matrix expression by immunofluorescence (confocal, Image J): elastin; settings: human dermal fibroblasts; peptide at 10 µM, 50 µM or 100 µM, 48 hours; green fluorescence intensity; maximum increase (FIG. 2)
Protocol: as §1, §2

collagen type 1 = test: Extracellular matrix expression by immunofluorescence (confocal, Image J): collagen type 1; settings: human dermal fibroblasts; peptide at 10 µM, 50 µM or 100 µM, 48 hours; green fluorescence intensity; maximum increase (FIG. 2)
Protocol: as §1, §2

## AERRREKCRC [peptide]
Human dermal fibroblasts
  proliferation increase: up to 1.62 times
fibronectin
  fibronectin expression increase compared to the control group: up to 1.38 times
elastin
  elastin expression increase compared to the control group: up to 2 times
Collagen type 1
  collagen type 1 expression increase compared to the control group: up to 1.32 times
